Earlier results in patent US8088597B2, “Blood pressure lowering peptides from glycomacropeptide” (DSM IP Assets B.V., priority 2005, dated 2012).

How the values were obtained:
ACE = ACE (Homo sapiens, UniProt P12821); conditions: reported in the literature
[1] = tested on: spontaneously hypertensive rats; conditions: tripeptides derived from lactic acid bacteria fermented bovine milk; Nakamura et al. 1995

ACE, sequence (P12821 30-1306, species assumed): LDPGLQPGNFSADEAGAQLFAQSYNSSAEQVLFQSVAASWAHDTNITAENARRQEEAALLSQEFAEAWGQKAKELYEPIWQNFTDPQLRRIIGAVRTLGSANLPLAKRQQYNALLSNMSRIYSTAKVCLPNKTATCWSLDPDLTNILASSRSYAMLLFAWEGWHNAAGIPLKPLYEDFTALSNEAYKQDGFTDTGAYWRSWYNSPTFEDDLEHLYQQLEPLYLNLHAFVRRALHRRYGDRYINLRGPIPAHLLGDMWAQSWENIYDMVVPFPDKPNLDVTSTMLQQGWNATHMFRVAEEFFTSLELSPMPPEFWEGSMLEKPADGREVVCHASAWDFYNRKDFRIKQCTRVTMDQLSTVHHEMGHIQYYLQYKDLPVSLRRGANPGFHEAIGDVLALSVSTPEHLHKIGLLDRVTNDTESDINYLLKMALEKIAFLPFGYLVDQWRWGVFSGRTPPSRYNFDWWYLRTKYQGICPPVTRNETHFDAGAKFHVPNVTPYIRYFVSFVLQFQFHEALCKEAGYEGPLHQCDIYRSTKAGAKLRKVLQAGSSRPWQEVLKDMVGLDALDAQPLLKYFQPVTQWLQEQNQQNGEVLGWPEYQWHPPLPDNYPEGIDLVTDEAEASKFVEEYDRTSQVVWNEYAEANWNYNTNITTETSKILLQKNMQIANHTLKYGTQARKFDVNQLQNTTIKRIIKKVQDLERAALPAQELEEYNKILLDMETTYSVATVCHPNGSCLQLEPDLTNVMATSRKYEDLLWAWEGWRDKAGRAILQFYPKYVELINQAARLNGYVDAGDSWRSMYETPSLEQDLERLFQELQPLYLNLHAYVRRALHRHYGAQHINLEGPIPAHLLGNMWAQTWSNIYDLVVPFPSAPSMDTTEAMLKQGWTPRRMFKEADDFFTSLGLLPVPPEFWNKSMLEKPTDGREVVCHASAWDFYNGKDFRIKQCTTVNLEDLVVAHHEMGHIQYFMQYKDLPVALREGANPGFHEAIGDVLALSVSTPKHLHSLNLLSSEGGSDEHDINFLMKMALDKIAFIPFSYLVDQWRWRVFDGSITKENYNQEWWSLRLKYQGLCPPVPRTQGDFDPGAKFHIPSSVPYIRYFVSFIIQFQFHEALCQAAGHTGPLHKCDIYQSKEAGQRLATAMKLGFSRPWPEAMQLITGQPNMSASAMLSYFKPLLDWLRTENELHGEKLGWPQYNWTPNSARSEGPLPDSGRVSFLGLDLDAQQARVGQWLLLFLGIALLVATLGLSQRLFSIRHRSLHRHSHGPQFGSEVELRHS

Substance | ACE inhibiting activity (ACE) | antihypertensive effects [1]
Ile-Pro-Pro | Strong ACE inhibiting activities | confirmed
Leu-Pro-Pro | Strong ACE inhibiting activities | 
Val-Pro-Pro | Strong ACE inhibiting activities | confirmed
